Literature values in US9745567B2, “Compositions and methods for treating multiple sclerosis” (REVALESIO CORPORATION, priority 2008, dated 2017).
Where a name gives a salt, the structure may show the parent alone. Read-outs that look alike come from different tables or passages of the source.

Assays:
MMP-1 = molecular target: T1, MMP-1 (Homo sapiens, UniProt P03956)
T1 sequence (P03956 100-469): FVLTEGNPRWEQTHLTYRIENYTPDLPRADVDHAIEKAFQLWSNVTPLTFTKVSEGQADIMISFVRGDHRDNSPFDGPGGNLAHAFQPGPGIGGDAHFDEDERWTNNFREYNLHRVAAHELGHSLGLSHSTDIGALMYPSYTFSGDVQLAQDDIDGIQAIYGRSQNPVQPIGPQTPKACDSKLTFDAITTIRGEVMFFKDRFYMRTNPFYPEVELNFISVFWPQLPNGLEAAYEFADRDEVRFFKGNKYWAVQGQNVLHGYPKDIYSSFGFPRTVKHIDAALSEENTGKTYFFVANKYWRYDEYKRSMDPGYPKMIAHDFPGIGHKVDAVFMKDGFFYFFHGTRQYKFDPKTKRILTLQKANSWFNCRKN

MMP-3 [1] = molecular target: T2, MMP-3 (Homo sapiens, UniProt P08254)
Target sequence in this assay (P08254 100-477, species assumed): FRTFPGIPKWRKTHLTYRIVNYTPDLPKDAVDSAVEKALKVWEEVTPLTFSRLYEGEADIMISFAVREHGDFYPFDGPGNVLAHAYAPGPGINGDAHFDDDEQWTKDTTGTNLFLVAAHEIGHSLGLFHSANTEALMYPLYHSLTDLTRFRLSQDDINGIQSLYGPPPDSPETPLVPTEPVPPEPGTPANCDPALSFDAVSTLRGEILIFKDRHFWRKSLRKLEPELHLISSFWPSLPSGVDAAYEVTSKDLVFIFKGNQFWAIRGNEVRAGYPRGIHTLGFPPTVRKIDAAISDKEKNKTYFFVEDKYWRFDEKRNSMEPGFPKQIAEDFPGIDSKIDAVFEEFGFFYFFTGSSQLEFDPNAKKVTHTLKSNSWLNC

MMP-8 = MMP-8 (Homo sapiens, UniProt P22894)
MMP-8, sequence (P22894 101-467, species assumed): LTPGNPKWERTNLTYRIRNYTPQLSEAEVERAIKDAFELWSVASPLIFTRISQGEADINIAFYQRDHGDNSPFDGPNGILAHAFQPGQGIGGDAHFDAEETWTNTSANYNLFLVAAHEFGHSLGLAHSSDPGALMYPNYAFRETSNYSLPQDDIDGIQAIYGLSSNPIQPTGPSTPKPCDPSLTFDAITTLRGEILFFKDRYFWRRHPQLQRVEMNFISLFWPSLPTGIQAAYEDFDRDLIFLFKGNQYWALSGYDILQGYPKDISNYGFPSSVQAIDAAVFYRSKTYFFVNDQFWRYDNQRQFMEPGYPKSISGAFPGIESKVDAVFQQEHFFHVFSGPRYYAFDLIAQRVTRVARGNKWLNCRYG

MMP-9 = MMP-9 (Homo sapiens, UniProt P14780)
MMP-9, sequence (P14780 94-707, species assumed): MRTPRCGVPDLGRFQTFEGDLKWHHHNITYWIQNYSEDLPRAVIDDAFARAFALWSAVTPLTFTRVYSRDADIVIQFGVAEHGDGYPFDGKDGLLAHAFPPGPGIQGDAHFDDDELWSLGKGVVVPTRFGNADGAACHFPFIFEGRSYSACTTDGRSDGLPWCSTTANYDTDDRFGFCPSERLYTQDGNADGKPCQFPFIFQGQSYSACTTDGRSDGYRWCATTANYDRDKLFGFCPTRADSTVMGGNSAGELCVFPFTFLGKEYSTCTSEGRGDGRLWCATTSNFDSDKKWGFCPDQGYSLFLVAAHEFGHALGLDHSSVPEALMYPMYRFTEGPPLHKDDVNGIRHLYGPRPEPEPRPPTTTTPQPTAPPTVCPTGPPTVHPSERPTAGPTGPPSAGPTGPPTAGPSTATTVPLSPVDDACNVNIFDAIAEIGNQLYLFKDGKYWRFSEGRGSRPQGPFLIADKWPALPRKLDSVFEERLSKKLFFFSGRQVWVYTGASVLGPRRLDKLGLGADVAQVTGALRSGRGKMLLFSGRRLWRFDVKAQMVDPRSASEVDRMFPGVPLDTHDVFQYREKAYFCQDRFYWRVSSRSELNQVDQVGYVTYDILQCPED

MMP-13 = MMP-13 (Homo sapiens, UniProt P45452)
TACE = TACE (Homo sapiens, UniProt P78536)
TACE, sequence (P78536 215-824): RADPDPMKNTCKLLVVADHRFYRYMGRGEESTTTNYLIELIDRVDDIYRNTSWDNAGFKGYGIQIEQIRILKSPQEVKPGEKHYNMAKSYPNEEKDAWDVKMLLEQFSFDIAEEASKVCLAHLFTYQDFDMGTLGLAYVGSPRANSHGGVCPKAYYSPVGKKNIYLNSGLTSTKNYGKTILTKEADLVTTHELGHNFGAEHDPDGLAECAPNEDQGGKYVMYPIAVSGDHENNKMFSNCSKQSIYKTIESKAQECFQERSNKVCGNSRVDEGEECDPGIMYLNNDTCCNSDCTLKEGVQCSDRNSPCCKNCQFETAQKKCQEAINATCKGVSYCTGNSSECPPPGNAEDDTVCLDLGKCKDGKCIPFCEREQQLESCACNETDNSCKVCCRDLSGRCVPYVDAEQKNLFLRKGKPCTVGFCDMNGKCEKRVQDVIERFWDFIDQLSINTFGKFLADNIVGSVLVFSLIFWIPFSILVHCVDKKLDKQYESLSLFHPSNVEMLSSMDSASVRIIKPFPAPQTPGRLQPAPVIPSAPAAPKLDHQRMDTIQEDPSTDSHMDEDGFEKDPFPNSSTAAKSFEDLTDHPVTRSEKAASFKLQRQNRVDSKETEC

MMP-2 = molecular target: T3, MMP-2 (Homo sapiens, UniProt P08253)
T3 sequence (P08253 110-660): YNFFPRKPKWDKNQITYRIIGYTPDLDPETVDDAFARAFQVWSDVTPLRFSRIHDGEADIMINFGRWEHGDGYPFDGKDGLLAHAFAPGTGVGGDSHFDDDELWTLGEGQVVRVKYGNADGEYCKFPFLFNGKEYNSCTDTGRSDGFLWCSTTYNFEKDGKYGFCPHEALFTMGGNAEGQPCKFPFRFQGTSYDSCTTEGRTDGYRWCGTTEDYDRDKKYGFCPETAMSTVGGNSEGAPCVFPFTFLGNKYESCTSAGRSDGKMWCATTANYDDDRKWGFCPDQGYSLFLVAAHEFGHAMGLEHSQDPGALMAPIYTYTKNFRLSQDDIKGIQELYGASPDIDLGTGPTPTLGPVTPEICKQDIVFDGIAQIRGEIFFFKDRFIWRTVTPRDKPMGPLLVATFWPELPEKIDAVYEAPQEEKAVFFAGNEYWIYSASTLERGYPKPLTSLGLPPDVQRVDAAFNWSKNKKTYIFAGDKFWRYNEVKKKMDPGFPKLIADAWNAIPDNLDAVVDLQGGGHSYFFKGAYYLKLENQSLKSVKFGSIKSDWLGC

MMP-7 = molecular target: T4, MMP-7 (Homo sapiens, UniProt P09237)
T4 sequence (P09237 95-267): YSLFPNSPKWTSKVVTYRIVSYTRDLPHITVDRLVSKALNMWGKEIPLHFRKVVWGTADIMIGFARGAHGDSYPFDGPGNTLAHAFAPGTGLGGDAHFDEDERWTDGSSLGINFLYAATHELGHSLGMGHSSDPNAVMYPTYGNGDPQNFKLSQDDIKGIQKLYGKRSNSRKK

MMP-3 [2] = molecular target: T2, MMP-3; details: for Ki values, human MMP-3 catalytic domain: competitive inhibitor
Target sequence in this assay (P08254 100-477): as the sequence (P08254 100-477, species assumed) above

[3] = molecular target: T5, rabbit MMP-3 catalytic domains (Oryctolagus cuniculus, UniProt P28863); details: competitive inhibitor
T5 construct: rabbit MMP-3 catalytic domains
T5 sequence (P28863 101-273 limits assumed): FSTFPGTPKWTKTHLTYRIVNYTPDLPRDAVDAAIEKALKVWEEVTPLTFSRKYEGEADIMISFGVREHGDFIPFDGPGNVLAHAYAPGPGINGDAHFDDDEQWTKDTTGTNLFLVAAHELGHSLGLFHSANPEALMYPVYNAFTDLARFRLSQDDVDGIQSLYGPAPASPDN

[4] = molecular target: murine macrophage metalloelastase (MME/MMP-12) (Mus musculus, UniProt P34960)
murine macrophage metalloelastase (MME/MMP-12), sequence (P34960 110-473): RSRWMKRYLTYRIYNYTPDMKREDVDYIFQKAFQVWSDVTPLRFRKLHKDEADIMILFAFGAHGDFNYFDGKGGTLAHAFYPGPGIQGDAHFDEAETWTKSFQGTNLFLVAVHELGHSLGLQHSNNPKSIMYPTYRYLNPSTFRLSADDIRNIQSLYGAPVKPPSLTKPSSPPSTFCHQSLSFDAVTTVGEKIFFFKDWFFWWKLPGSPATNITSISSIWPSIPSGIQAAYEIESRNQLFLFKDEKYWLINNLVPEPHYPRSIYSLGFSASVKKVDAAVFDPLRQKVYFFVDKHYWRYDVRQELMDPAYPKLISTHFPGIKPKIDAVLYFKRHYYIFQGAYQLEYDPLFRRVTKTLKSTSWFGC

[5] = molecular target: pseudolysin from P. aeruginosa (Pseudomonas aeruginosa, UniProt P14756)
pseudolysin from P. aeruginosa, sequence (P14756 198-498): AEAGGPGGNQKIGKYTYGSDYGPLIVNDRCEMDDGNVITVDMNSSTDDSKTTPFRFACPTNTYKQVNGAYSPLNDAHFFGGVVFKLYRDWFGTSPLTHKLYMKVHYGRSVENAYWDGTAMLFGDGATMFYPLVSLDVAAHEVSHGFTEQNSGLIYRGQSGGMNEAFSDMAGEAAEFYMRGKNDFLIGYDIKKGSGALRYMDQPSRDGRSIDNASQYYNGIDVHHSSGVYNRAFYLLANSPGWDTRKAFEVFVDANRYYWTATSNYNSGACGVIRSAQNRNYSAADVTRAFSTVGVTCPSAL

multiple sclerosis = details: clinical study, 943 patients with primary progressive MS

In the case of “4-Abz-Gly-Pro-D-Leu-D-Ala-NH—OH [MMP Inhibitor I (FN-439)]”, the IC50 (MMP-1) is listed as 1000 nM, the IC50 (MMP-3 [1]) is listed as 150000 nM and the IC50 (MMP-8) is listed as 1000 nM. The IC50 (MMP-9) was 30000 nM.

In the case of `O=C(NCCCCN1CCOCC1)c1cc2ccccc2o1` [CL-82198], the “inhibition of MMP-1” value (MMP-1) is listed as “Does not inhibit”, the “inhibition of MMP-9” value (MMP-9) is listed as “Does not inhibit” and the IC50 (MMP-13) is listed as 10000 nM. For the same compound, the “inhibition of TACE” value (TACE) was “Does not inhibit”.

In the case of `N=C(NCCCCCCNC(=N)NC(=N)Nc1ccc(Cl)cc1)NC(=N)Nc1ccc(Cl)cc1` [Chlorhexidine, Dihydrochloride], the “inhibition of MMP-2” value (MMP-2) is given as “Acts as a Zn2+-chelating inhibitor of MMP-2 and MMP-9” and the “inhibition of MMP-9” value (MMP-9) is given as “Acts as a Zn2+-chelating inhibitor of MMP-2 and MMP-9”.

In the case of `CC(C)C[C@H](CC(=O)O)C(=O)N[C@@H](Cc1c[nH]c2ccccc12)C(=O)N[C@@H](C)c1ccccc1` [GM 1489], the Ki (MMP-1) is listed as 0.2 nM, the Ki (MMP-2) is listed as 500 nM and the Ki (MMP-3 [1]) is listed as 20000 nM. The Ki (MMP-8) was 100 nM and the Ki (MMP-9) was 100 nM.

In the case of `CNC(=O)C(CCc1ccccc1)NC(=O)C(CC(=O)NO)CC(C)C` (centres unmarked) [MMP Inhibitor III], the IC50 (MMP-1) is given as 7.4 nM, the IC50 (MMP-2) is given as 2.3 nM and the IC50 (MMP-3 [1]) is given as 135 nM. The IC50 (MMP-7) was 10 to 100 nM and the IC50 (MMP-13) was 1 to 10 nM.

In the case of `CCCCCCCC/C=C\CCCCCCCC(=O)NO` [MMP-2 Inhibitor I (OA-Hy)], the Ki (MMP-2) is given as 1700 nM.

For `COC(=O)[C@H](Cc1ccccc1)NC(=O)Nc1nnc(S)s1` [MMP-2/MMP-3 Inhibitor I], the Ki (MMP-2) is given as 17000 nM.

For `CC(NC(=O)C(Cc1ccccc1)NC(=O)CCC(=O)NO)C(N)=O` (centres unmarked) [MMP-2/MMP-9 Inhibitor IV, HONH—COCH2CH2CO-FA-NH2], the Ki (MMP-2) is given as 13.9 nM and the Ki (MMP-9) is given as 600 nM.

For `O=C(O)CCC(=NO)c1ccc2oc3ccccc3c2c1` [MMP-3 Inhibitor V, 4-Dibenzofuran-2′-yl-4-hydroximino-butyric Acid], the “Ki values, human MMP-3 catalytic domain” value (MMP-3 [2]) is listed as “the low μM range” and the “Ki values, rabbit MMP-3 catalytic domain” value [3] is listed as “the low μM range”.

For `O=C(O)CCC(=NO)c1ccc(-c2ccccc2)cc1` [MMP-3 Inhibitor VI, 4-(4′-Biphenyl)-4-hydroxyimino-butyric Acid], the “Ki values, human MMP-3 catalytic domain” value (MMP-3 [2]) is listed as “the low μM range” and the “Ki values, rabbit MMP-3 catalytic domain” value [3] is listed as “the low μM range”.

In the case of `COc1ccc(S(=O)(=O)N(Cc2ccccc2)C(CC(C)C)C(=O)NO)cc1` (centres unmarked) [MMP-3 Inhibitor VIII], the Ki (MMP-3 [2]) is given as 23 nM and the IC50 [4] is given as 13 nM.

In the case of `O=S(=O)(CCC(S)CS)c1ccc(Oc2ccccc2)cc1` (centres unmarked) [compound 1, 4-(4-phenoxyphenylsulfonyl)butane-1,2-dithiol], the “inhibition of MMP-2” value (MMP-2) is given as “bind selectively and inhibit potently” and the “inhibition of MMP-9” value (MMP-9) is given as “bind selectively and inhibit potently”.

In the case of `O=S(=O)(CCCC(S)CS)c1ccc(Oc2ccccc2)cc1` (centres unmarked) [compound 2, 5-(4-phenoxyphenylsulfonyl)pentane-1,2-dithiol], the “inhibition of MMP-2” value (MMP-2) is given as “bind selectively and inhibit potently” and the “inhibition of MMP-9” value (MMP-9) is given as “bind selectively and inhibit potently”.

For “H-Cys1-Thr-Thr-His-Trp-Gly-Phe-Thr-Leu-Cys10-OH (cyclic: 1 → 10) [MMP-2/MMP-9 Inhibitor III]”, the IC50 (MMP-2) is given as 10000 nM.

For “HONH—COCH2CH2CO-Phe-Ala-NH2 [MMP Inhibitor IV]”, the “inhibition of pseudolysin from P. aeruginosa” value [5] is given as “potently inhibits MMPs and”.

In the case of “RCGVPD [MMP-3 Inhibitor I, Ac-Arg-Cys-Gly-Val-Pro-Asp-NH2]”, the IC50 (MMP-3 [1]) is listed as 5000 nM.

For glatiramer acetate, the “progression of disability and disease” value (multiple sclerosis) is listed as “failed to halt the progression of disability and the disease”.
